Measured values: patent US10092493B2, “Composition of skin external application for anti-aging” (AMOREPACIFIC CORPORATION, priority 2005, dated 2018)

Each molecule was assayed against T1, PPAR-α (Peroxisome Proliferator Activated Receptor-alpha) (Homo sapiens, UniProt Q07869) (assay: Activation of PPAR-α, luciferase reporter in CV-1 cells). Conditions: 10 μM, 24 hours; negative control and non-treated group = 1.0.
T1 construct: expressed in transfected cells; host or cells: CV-1 monkey kidney epithelial cells (ATCC CCL 70)
T1 sequence (Q07869 1-468): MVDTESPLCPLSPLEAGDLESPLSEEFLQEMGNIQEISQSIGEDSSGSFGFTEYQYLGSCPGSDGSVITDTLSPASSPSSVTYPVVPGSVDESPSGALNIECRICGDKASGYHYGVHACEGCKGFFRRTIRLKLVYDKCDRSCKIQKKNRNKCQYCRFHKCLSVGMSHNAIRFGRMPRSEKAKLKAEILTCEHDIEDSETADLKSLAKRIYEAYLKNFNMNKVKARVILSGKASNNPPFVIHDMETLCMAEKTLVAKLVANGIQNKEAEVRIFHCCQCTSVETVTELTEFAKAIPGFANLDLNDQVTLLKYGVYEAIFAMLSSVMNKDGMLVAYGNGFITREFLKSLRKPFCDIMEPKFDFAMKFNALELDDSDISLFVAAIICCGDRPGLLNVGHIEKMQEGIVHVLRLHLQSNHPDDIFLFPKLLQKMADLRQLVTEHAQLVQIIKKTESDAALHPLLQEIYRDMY
Assay type: cell-based
Method: Monkey kidney epithelial cell line CV-1 (ATCC CCL 70) was subcultured in a DMEM medium containing 10% fetal bovine serum treated with charcol/dextran, which was a phenol red-free medium to remove the effect by estrogen of phenol red.
CV-1 cells were distributed in a 24-well plate type incubator at a concentration of 5×10^4. After 24 hours cultivation, the 3 different plasmids were transient transfected. After 24 hours cultivation, the plate was washed with 1×PBS (Phosphate Buffered Saline) and treated with ligand candidates at various concentrations. After 24 hours cultivation, the plate was washed with 1×PBS and the cells were lyzed with 1×PLB (Passive Lysis Buffer) and measured for luciferase activity using Dual-Luciferase® Reporter Assay System kit.

Point of comparison: `Cn1cnc2c1c(=O)[nH]c(=O)n2C` [Theobromine], PPAR-α activity 2.2. Against it:
- O=c1c(O)c(-c2ccc(O)cc2)oc2cc(O)cc(O)c12 [Kaempferol, kaempferol] — lower, 1.7
- Oc1cc(O)c2c(c1)O[C@H](c1cc(O)c(O)c(O)c1)[C@@H](O)C2 [(−) GC, gallocatechin] — lower, 1.1
- Oc1cc(O)c2c(c1)O[C@H](c1cc(O)c(O)c(O)c1)[C@H](O)C2 [(−) EGC, epigallocatechin] — lower, 1.3
- O=c1c(O)c(-c2ccc(O)c(O)c2)oc2cc(O)cc(O)c12 [Quercetin, quercetin] — lower, 1.7
- Oc1cc(O)c2c(c1)O[C@H](c1ccc(O)c(O)c1)[C@H](O)C2 [(−) EC, (−)epicatechin] — lower, 1.2
- Oc1cc(O)c2c(c1)O[C@@H](c1ccc(O)c(O)c1)[C@@H](O)C2 [(+) EC, (+)epicatechin] — lower, 1.3
- Cn1c(=O)c2[nH]cnc2n(C)c1=O [Theophylline, reference compound] — lower, 1.4
- Cn1c(=O)c2c(ncn2C)n(C)c1=O [Caffeine, reference compound] — lower, 1.3

Same assay, conditions: 100 μM, 24 hours; negative control and non-treated group = 1.0

Point of comparison: `O=c1c(O)c(-c2ccc(O)cc2)oc2cc(O)cc(O)c12` [Kaempferol, kaempferol], PPAR-α activity 1.4. Against it:
- Oc1cc(O)c2c(c1)O[C@H](c1cc(O)c(O)c(O)c1)[C@@H](O)C2 [(−) GC, gallocatechin] — lower, 1.0
- Oc1cc(O)c2c(c1)O[C@H](c1cc(O)c(O)c(O)c1)[C@H](O)C2 [(−) EGC, epigallocatechin] — lower, 1.0
- O=c1c(O)c(-c2ccc(O)c(O)c2)oc2cc(O)cc(O)c12 [Quercetin, quercetin] — higher, 2.3
- Oc1cc(O)c2c(c1)O[C@H](c1ccc(O)c(O)c1)[C@H](O)C2 [(−) EC, (−)epicatechin] — lower, 1.2
- Oc1cc(O)c2c(c1)O[C@@H](c1ccc(O)c(O)c1)[C@@H](O)C2 [(+) EC, (+)epicatechin] — lower, 1.2
- Cn1c(=O)c2[nH]cnc2n(C)c1=O [Theophylline, reference compound] — higher, 1.7
- Cn1c(=O)c2c(ncn2C)n(C)c1=O [Caffeine, reference compound] — higher, 1.6
- Cn1cnc2c1c(=O)[nH]c(=O)n2C [Theobromine] — higher, 4.5

These molecules were tested on Tumor Necrosis Factor alpha (TNF-α) (assay: Inhibition of TNF-α biosynthesis after UV irradiation (ELISA)). Conditions: human keratinocytes, UV-B 30 mJ/cm^2, 10 μM (10 ppm of extract), 6 to 24 hours; UV control = 100.
Assay type: cell-based
Method: Human keratinocytes were cultured in a 12-well plate type incubator at a concentration of 10^4. The plate was irradiated by UV-B at 30 mJ/cm^2. The media were exchanged with new medium containing 10 μM of each test substance (10 ppm of extract). After 6 to 24 hours of cultivation, the cells were harvested and subjected to ELISA (Pharmingen 555212) to determine the amount of produced tumor necrosis factor α (TNF-α). As the positive control, Wy-14,643 was used.

Point of comparison: `Cn1c(=O)c2[nH]cnc2n(C)c1=O` [Theophylline, reference compound], “TNF-α biosynthesis (%)” value 36%. Against it:
- O=c1c(O)c(-c2ccc(O)cc2)oc2cc(O)cc(O)c12 [Kaempferol, kaempferol] — higher, 41%
- O=c1c(O)c(-c2ccc(O)c(O)c2)oc2cc(O)cc(O)c12 [Quercetin, quercetin] — lower, 27%
- Cn1c(=O)c2c(ncn2C)n(C)c1=O [Caffeine, reference compound] — higher, 39%
- Cn1cnc2c1c(=O)[nH]c(=O)n2C [Theobromine] — lower, 25%

What follows are molecules tested on Type I Collagenase (MMP-1) (assay: Inhibition of type I collagenase (MMP-1) biosynthesis after UV-A irradiation, test substances (ELISA)). Conditions: new born human fibroblasts, UV-A 15 J/cm^2, 10 μM or 10 ppm, plus TNF-α 10 ng/ml; UV negative control = 100.
Assay type: cell-based
Method: To describe the experiment method in detail, human fibroblasts isolated from the skin of a new born baby were cultured in a 48-well plate type incubator at a concentration of 10^4. After 24 hours, the plate was irradiated by UV-A at 15 J/cm^2. […] At the second day of cultivation, the supernatants were harvested and subjected to ELISA (AP biotech RPN2610) to determine the amount of produced type I collagenase. As the positive control, Wy-14,643 and retinoic acid (RA) were used.

Point of comparison: `O=c1c(O)c(-c2ccc(O)cc2)oc2cc(O)cc(O)c12` [Kaempferol, kaempferol], “Type I collagenase biosynthesis (%), UV-A + TNF-α treated group” value 94%. Against it:
- O=c1c(O)c(-c2ccc(O)c(O)c2)oc2cc(O)cc(O)c12 [Quercetin, quercetin] — lower, 91%
- Cn1c(=O)c2[nH]cnc2n(C)c1=O [Theophylline, reference compound] — lower, 92%
- Cn1c(=O)c2c(ncn2C)n(C)c1=O [Caffeine, reference compound] — lower, 91%
- CC1=C(/C=C/C(C)=C/C=C/C(C)=C/C(=O)O)C(C)(C)CCC1 [RA, retinoic acid, reference compound] — lower, 86%
- Cn1cnc2c1c(=O)[nH]c(=O)n2C [Theobromine] — lower, 90%

Same assay, conditions: new born human fibroblasts, UV-A 15 J/cm^2, 10 μM or 10 ppm; UV negative control = 100

Point of comparison: `O=c1c(O)c(-c2ccc(O)c(O)c2)oc2cc(O)cc(O)c12` [Quercetin, quercetin], “Type I collagenase biosynthesis (%), UV-A irradiated group” value 35%. Against it:
- O=c1c(O)c(-c2ccc(O)cc2)oc2cc(O)cc(O)c12 [Kaempferol, kaempferol] — higher, 48%
- Cn1c(=O)c2[nH]cnc2n(C)c1=O [Theophylline, reference compound] — higher, 40%
- Cn1c(=O)c2c(ncn2C)n(C)c1=O [Caffeine, reference compound] — higher, 58%
- CC1=C(/C=C/C(C)=C/C=C/C(C)=C/C(=O)O)C(C)(C)CCC1 [RA, retinoic acid, reference compound] — higher, 48%
- Cn1cnc2c1c(=O)[nH]c(=O)n2C [Theobromine] — lower, 32%
